Assay results from patent US9469650B2, “Melampomagnolide B derivatives” (BOARD OF TRUSTEES OF THE UNIVERSITY OF ARKANSAS, priority 2013, dated 2016).

Columns and labels:
[1] = system: NCI-H23; assay: panel of 60 human tumor cell lines, growth inhibition (Non-Small Cell Lung Cancer)
[2] = system: MCF7; assay: panel of 60 human tumor cell lines, growth inhibition (Breast Cancer); conditions: for Percent Growth: MCF7
[3] = system: BT-549; assay: as above
[4] = system: HOP-92; assay: panel of 60 human tumor cell lines, growth inhibition (Non-Small Cell Lung Cancer); conditions: for Percent Growth: HOP-92
[5] = system: MDA-MB-468; assay: panel of 60 human tumor cell lines, growth inhibition (Breast Cancer)
[6] = system: SK-OV-3; assay: panel of 60 human tumor cell lines, growth inhibition (Ovarian Cancer)
[7] = system: OVCAR-8; assay: as above
[8] = system: A549/ATCC; assay: panel of 60 human tumor cell lines, growth inhibition (Non-Small Cell Lung Cancer); conditions: for Percent Growth: A549/ATCC
[9] = system: HCT-15; assay: panel of 60 human tumor cell lines, growth inhibition (Colon Cancer)
[10] = system: COLO 205; assay: as above
[11] = system: OVCAR-3; assay: panel of 60 human tumor cell lines, growth inhibition (Ovarian Cancer)
[12] = system: RXF 393; assay: panel of 60 human tumor cell lines, growth inhibition (Renal Cancer); conditions: for Percent Growth: RXF 393
[13] = system: NCI-H522; assay: panel of 60 human tumor cell lines, growth inhibition (Non-Small Cell Lung Cancer)
[14] = system: IGROV1; assay: panel of 60 human tumor cell lines, growth inhibition (Ovarian Cancer); conditions: for Percent Growth: IGROVI
[15] = system: SK-MEL-5; assay: panel of 60 human tumor cell lines, growth inhibition (Melanoma); conditions: for Percent Growth: 8K-MEL-5
[16] = system: TK-10; assay: panel of 60 human tumor cell lines, growth inhibition (Renal Cancer); conditions: for Percent Growth: TK-10
[17] = system: UACC-257; assay: panel of 60 human tumor cell lines, growth inhibition (Melanoma)
[18] = system: CCRF-CEM; assay: panel of 60 human tumor cell lines, growth inhibition (Leukemia)

C=C1C(=O)O[C@H]2[C@H]1CC/C(COC(=O)CCC(=O)NCc1ccc(Cl)nc1)=C\CC[C@@]1(C)O[C@@H]21 [JVM 96]
GI50 ([1]; Homo sapiens, NCI-H23): 18.4 µM | CC50 ([1]; Homo sapiens, NCI-H23, read-out: LC50): > 100 µM | IC (TGI) ([1]; Homo sapiens, NCI-H23, read-out: TGI): 45.7 µM | Percent Growth ([1]; NCI-H23, Log10 Concentration −4.0): −43% | Percent Growth ([1]; NCI-H23, Log10 Concentration −5.0): 83% | Percent Growth ([1]; NCI-H23, Log10 Concentration −6.0): 103% | Percent Growth ([1]; NCI-H23, Log10 Concentration −7.0): 103% | Percent Growth ([1]; NCI-H23, Log10 Concentration −8.0): 96% | GI50 ([2]; Homo sapiens, MCF7, MCF7): 3.2 µM | CC50 ([2]; Homo sapiens, MCF7, read-out: LC50): 58.9 µM | IC (TGI) ([2]; Homo sapiens, MCF7, read-out: TGI): 13.6 µM | Percent Growth ([2]; Log10 Concentration −4.0): −68% | Percent Growth ([2]; Log10 Concentration −5.0): 10% | Percent Growth ([2]; Log10 Concentration −6.0): 90% | Percent Growth ([2]; Log10 Concentration −7.0): 89% | Percent Growth ([2]; Log10 Concentration −8.0): 90% | Percent Growth ([3]; BT-549, Log10 Concentration −4.0): −97% | Percent Growth ([3]; BT-549, Log10 Concentration −5.0): 32% | Percent Growth ([3]; BT-549, Log10 Concentration −6.0): 93% | Percent Growth ([3]; BT-549, Log10 Concentration −7.0): 139% | Percent Growth ([3]; BT-549, Log10 Concentration −8.0): 102% | GI50 ([3]; Homo sapiens, BT-549): 5.14 µM | CC50 ([3]; Homo sapiens, BT-549, read-out: LC50): 43.1 µM | IC (TGI) ([3]; Homo sapiens, BT-549, read-out: TGI): 17.8 µM | Percent Growth ([4]; Log10 Concentration −4.0): −93% | Percent Growth ([4]; Log10 Concentration −5.0): −2% | Percent Growth ([4]; Log10 Concentration −6.0): 90% | Percent Growth ([4]; Log10 Concentration −7.0): 93% | Percent Growth ([4]; Log10 Concentration −8.0): 93% | GI50 ([4]; Homo sapiens, HOP-92, HOP-92): 2.72 µM | CC50 ([4]; Homo sapiens, HOP-92, read-out: LC50): 33.7 µM | IC (TGI) ([4]; Homo sapiens, HOP-92, read-out: TGI): 9.47 µM | GI50 ([5]; Homo sapiens, MDA-MB-468): 1.54 µM | CC50 ([5]; Homo sapiens, MDA-MB-468, read-out: LC50): 44.6 µM | IC (TGI) ([5]; Homo sapiens, MDA-MB-468, read-out: TGI): 7.38 µM | Percent Growth ([5]; MDA-MB-468, Log10 Concentration −4.0): −72% | Percent Growth ([5]; MDA-MB-468, Log10 Concentration −5.0): −10% | Percent Growth ([5]; MDA-MB-468, Log10 Concentration −6.0): 64% | Percent Growth ([5]; MDA-MB-468, Log10 Concentration −7.0): 94% | Percent Growth ([5]; MDA-MB-468, Log10 Concentration −8.0): 88% | GI50 ([6]; Homo sapiens, SK-OV-3): 28 µM | CC50 ([6]; Homo sapiens, SK-OV-3, read-out: LC50): > 100 µM | IC (TGI) ([6]; Homo sapiens, SK-OV-3, read-out: TGI): 70.5 µM | Percent Growth ([6]; SK-OV-3, Log10 Concentration −4.0): −19% | Percent Growth ([6]; SK-OV-3, Log10 Concentration −5.0): 106% | Percent Growth ([6]; SK-OV-3, Log10 Concentration −6.0): 106% | Percent Growth ([6]; SK-OV-3, Log10 Concentration −7.0): 104% | Percent Growth ([6]; SK-OV-3, Log10 Concentration −8.0): 99% | GI50 ([7]; Homo sapiens, OVCAR-8): 12.5 µM | CC50 ([7]; Homo sapiens, OVCAR-8, read-out: LC50): 72 µM | IC (TGI) ([7]; Homo sapiens, OVCAR-8, read-out: TGI): 30 µM | Percent Growth ([7]; OVCAR-8, Log10 Concentration −4.0): −69% | Percent Growth ([7]; OVCAR-8, Log10 Concentration −5.0): 63% | Percent Growth ([7]; OVCAR-8, Log10 Concentration −6.0): 105% | Percent Growth ([7]; OVCAR-8, Log10 Concentration −7.0): 95% | Percent Growth ([7]; OVCAR-8, Log10 Concentration −8.0): 95% | Percent Growth ([8]; Log10 Concentration −4.0): −66% | Percent Growth ([8]; Log10 Concentration −5.0): 83% | Percent Growth ([8]; Log10 Concentration −6.0): 104% | Percent Growth ([8]; Log10 Concentration −7.0): 93% | Percent Growth ([8]; Log10 Concentration −8.0): 92% | GI50 ([8]; Homo sapiens, A549): 16.7 µM | CC50 ([8]; Homo sapiens, A549, read-out: LC50): 77.8 µM | IC (TGI) ([8]; Homo sapiens, A549, read-out: TGI): 36.1 µM | Percent Growth ([9]; HCT-15, Log10 Concentration −4.0): −88% | Percent Growth ([9]; HCT-15, Log10 Concentration −5.0): 16% | Percent Growth ([9]; HCT-15, Log10 Concentration −6.0): 8.9% | Percent Growth ([9]; HCT-15, Log10 Concentration −7.0): 93% | Percent Growth ([9]; HCT-15, Log10 Concentration −8.0): 93% | GI50 ([9]; Homo sapiens, HCT-15): 3.43 µM | CC50 ([9]; Homo sapiens, HCT-15, read-out: LC50): 43.1 µM | IC (TGI) ([9]; Homo sapiens, HCT-15, read-out: TGI): 14.2 µM | Percent Growth ([10]; COLO 205, Log10 Concentration −4.0): −90% | Percent Growth ([10]; COLO 205, Log10 Concentration −5.0): 1% | Percent Growth ([10]; COLO 205, Log10 Concentration −6.0): 103% | Percent Growth ([10]; COLO 205, Log10 Concentration −7.0): 105% | Percent Growth ([10]; COLO 205, Log10 Concentration −8.0): 109% | GI50 ([10]; Homo sapiens, COLO 205): 3.3 µM | CC50 ([10]; Homo sapiens, COLO 205, read-out: LC50): 36.6 µM | IC (TGI) ([10]; Homo sapiens, COLO 205, read-out: TGI): 10.3 µM | GI50 ([11]; Homo sapiens, OVCAR-3): 4.54 µM | CC50 ([11]; Homo sapiens, OVCAR-3, read-out: LC50): 40.3 µM | IC (TGI) ([11]; Homo sapiens, OVCAR-3, read-out: TGI): 15.7 µM | Percent Growth ([11]; OVCAR-3, Log10 Concentration −4.0): −98% | Percent Growth ([11]; OVCAR-3, Log10 Concentration −5.0): 24% | Percent Growth ([11]; OVCAR-3, Log10 Concentration −6.0): 100% | Percent Growth ([11]; OVCAR-3, Log10 Concentration −7.0): 107% | Percent Growth ([11]; OVCAR-3, Log10 Concentration −8.0): 96% | GI50 ([12]; Homo sapiens, RXF 393, RXF 393): 3.57 µM | CC50 ([12]; Homo sapiens, RXF 393, read-out: LC50): 48.4 µM | IC (TGI) ([12]; Homo sapiens, RXF 393, read-out: TGI): 14.4 µM | Percent Growth ([12]; Log10 Concentration −4.0): −80% | Percent Growth ([12]; Log10 Concentration −5.0): 15% | Percent Growth ([12]; Log10 Concentration −6.0): 93% | Percent Growth ([12]; Log10 Concentration −7.0): 100% | Percent Growth ([12]; Log10 Concentration −8.0): 93% | GI50 ([13]; Homo sapiens, NCI-H522): 1.6 µM | CC50 ([13]; Homo sapiens, NCI-H522, read-out: LC50): 7.82 µM | IC (TGI) ([13]; Homo sapiens, NCI-H522, read-out: TGI): 3.54 µM | Percent Growth ([13]; NCI-H522, Log10 Concentration −4.0): −78% | Percent Growth ([13]; NCI-H522, Log10 Concentration −5.0): −66% | Percent Growth ([13]; NCI-H522, Log10 Concentration −6.0): 80% | Percent Growth ([13]; NCI-H522, Log10 Concentration −7.0): 102% | Percent Growth ([13]; NCI-H522, Log10 Concentration −8.0): 101% | GI50 ([14]; Homo sapiens, IGROV-1): 16.7 µM | CC50 ([14]; Homo sapiens, IGROV-1, read-out: LC50): 95.5 µM | IC (TGI) ([14]; Homo sapiens, IGROV-1, read-out: TGI): 39.9 µM | Percent Growth ([14]; Log10 Concentration −4.0): −53% | Percent Growth ([14]; Log10 Concentration −5.0): 79% | Percent Growth ([14]; Log10 Concentration −6.0): 107% | Percent Growth ([14]; Log10 Concentration −7.0): 106% | Percent Growth ([14]; Log10 Concentration −8.0): 107% | Percent Growth ([15]; Log10 Concentration −4.0): −89% | Percent Growth ([15]; Log10 Concentration −5.0): 53% | Percent Growth ([15]; Log10 Concentration −7.0): 98% | Percent Growth ([15]; Log10 Concentration −8.0): 97% | GI50 ([15]; Homo sapiens, SK-MEL-5): 10.5 µM | CC50 ([15]; Homo sapiens, SK-MEL-5, read-out: LC50): 53.1 µM | IC (TGI) ([15]; Homo sapiens, SK-MEL-5, read-out: TGI): 23.7 µM | GI50 ([16]; Homo sapiens, TK-10, TK-10): 3.83 µM | CC50 ([16]; Homo sapiens, TK-10, read-out: LC50): 37.9 to 50 µM | IC (TGI) ([16]; Homo sapiens, TK-10, read-out: TGI): 13.5 µM | Percent Growth ([16]; Log10 Concentration −4.0): −99% | Percent Growth ([16]; Log10 Concentration −5.0): 15% | Percent Growth ([16]; Log10 Concentration −6.0): 99% | Percent Growth ([16]; Log10 Concentration −7.0): 103% | Percent Growth ([16]; Log10 Concentration −8.0): 102% | GI50 ([17]; Homo sapiens, UACC-257): 8.82 µM | CC50 ([17]; Homo sapiens, UACC-257, read-out: LC50): 53.2 µM | TGI ([17]; UACC-257): 2.26E−5 | Percent Growth ([17]; UACC-257, Log10 Concentration −4.0): −87% | Percent Growth ([17]; UACC-257, Log10 Concentration −5.0): 47% | Percent Growth ([17]; UACC-257, Log10 Concentration −6.0): 95% | Percent Growth ([17]; UACC-257, Log10 Concentration −7.0): 90% | Percent Growth ([17]; UACC-257, Log10 Concentration −8.0): 88% | GI50 ([18]; Homo sapiens): 2.2 µM | CC50 ([18]; Homo sapiens, read-out: LC50): > 100 µM | IC (TGI) ([18]; Homo sapiens, read-out: TGI): 7.66 µM | Percent Growth ([18]; Log10 Concentration −4.0): −49% | Percent Growth ([18]; Log10 Concentration −5.0): −11% | Percent Growth ([18]; Log10 Concentration −6.0): 82% | Percent Growth ([18]; Log10 Concentration −7.0): 100% | Percent Growth ([18]; Log10 Concentration −8.0): 99%
